Holding throughout (test): growth of human tumour cells (NCI), 48 h
Experiment [1] relates to SF-539.
For experiment [2], the system named is NCI-H226.
In experiment [3] the test system is RPMI-8226.
Experiment [4] relates to NCI-H23.
Experiment [5] deals with SR.
Experiment [6] relates to PC-3.
The subject of experiment [7] is HCT-116.
Experiment [8] deals with MDA-N.
The subject of experiment [9] is M14.
The subject of experiment [10] is MDA-MB-435.
The subject of experiment [11] is CAKI-1.
The subject of experiment [12] is COLO 205.
In experiment [13] the test system is A498.
Experiment [14] deals with NCI-H522.
For experiment [15], the system named is TK-10.
Experiment [16] deals with HT-29.
Experiment [17] concerns HOP-92.
The test system of experiment [18] is SF-295.
Experiment [19] deals with LOX IMVI.
The subject of experiment [20] is SK-MEL-2.

Results on 7 compounds are retold here after ChEMBL document CHEMBL1201862, “PubChem BioAssay data set” (2004).

Structures are written as SMILES.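 Exposure lasted 48 hours, with cells grown in 96-well plates and compounds tested at five concentrations. Abbreviation: GI50, concentration required for 50% inhibition of growth.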 Activity calls are given as the source filed them. No stated cut-off is given here; in the data, active = GI50 up to about 1.1 µM and inactive = higher.

Consider `Cc1ccc(/N=N/C(=N\c2ccc(Cl)cc2)c2ccc(N(CCC#N)CCC#N)cc2)cc1`, for which the GI50 in experiment [1] was 47.4 µM (inactive); in experiment [2], > 100 µM (inactive); in experiment [3], > 100 µM (inactive); in experiment [4], 48.6 µM (inactive); in [5], 22 µM (inactive); in experiment [6], 22.6 µM (inactive). Also, the GI50 is 49 µM (inactive) in experiment [7]; 55.6 µM (inactive) in [8]; 30.8 µM (inactive) in experiment [9]; 19.1 µM (inactive) in experiment [10]; > 100 µM (inactive) in experiment [11]; 17.4 µM (inactive) in experiment [12]. In addition, the GI50 in experiment [13] is > 100 µM (inactive); in experiment [14] it was 19.4 µM (inactive); in experiment [15], 21.7 µM (inactive); in experiment [16], 71.4 µM (inactive); in [17], 46.3 µM (inactive); in [18], 3.98 µM (inactive).
As to `COc1cc(S(=O)(=O)Nc2ccc(-c3csc(/N=C\c4ccccc4)n3)cc2)ccc1Cl`, the GI50 in [19] was 43.9 µM (inactive); in experiment [1] it was 35.1 µM (inactive); in experiment [20] it was 25.2 µM (inactive); in [2], 75.2 µM (inactive); in experiment [3], 32 µM (inactive); in experiment [4] it was 60.7 µM (inactive). Besides, the GI50 was 29.8 µM (inactive) in [5]; 48.2 µM (inactive) in experiment [6]; 44.8 µM (inactive) in [7]; 39 µM (inactive) in experiment [8]; 56.1 µM (inactive) in experiment [9]; 34.1 µM (inactive) in experiment [10]. For the same compound, the GI50 was > 100 µM (inactive) in experiment [11]; 36.4 µM (inactive) in experiment [12]; 37.5 µM (inactive) in experiment [13]; 29.9 µM (inactive) in [14]; 44.2 µM (inactive) in [16]; > 100 µM (inactive) in experiment [17]. Further, in [18], the GI50 is 76.9 µM (inactive).
As for `CC[C@H]1C=CCC[C@@]2(C[C@@H]3CC[C@@H]4[C@H](C(=O)OCCCCCCCCCCCCCCCC(=O)N(CCCNC(C)=O)C[C@H](CCNC(C)=O)OC(C)=O)[C@]5(CCC[C@@H](C)O5)NC(=[N+]34)N2)O1`, the GI50 was 0.0277 µM (active) in experiment [19]; 0.26 µM (active) in experiment [1]; 0.0404 µM (active) in experiment [20]; 0.229 µM (active) in [2]; 0.0312 µM (active) in experiment [3]; 0.583 µM (active) in [4]. The GI50 in experiment [5] is 0.0394 µM (active); in experiment [6], 0.0349 µM (active); in experiment [7], 0.0405 µM (active); in experiment [8], 0.0466 µM (active); in experiment [9] it was 0.129 µM (active); in [10], 0.0432 µM (active). Further, the GI50 was 0.561 µM (active) in experiment [11]; 0.0395 µM (active) in [12]; 0.435 µM (active) in [13]; 0.0331 µM (active) in [14]; 0.759 µM (active) in [15]; 0.0344 µM (active) in experiment [16]. The results for the GI50 in experiment [17] and in experiment [18] were 0.0659 µM (active) and 0.391 µM (active), respectively.
For the compound `CCOc1cc(NC(C)=O)ccc1C(=O)NNS(=O)(=O)c1ccc(NC(C)=O)cc1`, the GI50 in experiment [19] was 55.7 µM (inactive); in [1], 33.2 µM (inactive); in experiment [20] it was 28.8 µM (inactive); in [2], 25.2 µM (inactive); in experiment [3], 31.7 µM (inactive); in [4], 97.3 µM (inactive). In addition, the GI50 in experiment [5] was 13.6 µM (inactive); in experiment [6], 46.7 µM (inactive); in experiment [7], 44.1 µM (inactive); in [8], 16.7 µM (inactive); in experiment [9], 56 µM (inactive); in [10], 27.9 µM (inactive). Moreover, the GI50 was 54.6 µM (inactive) in experiment [11]; 24.7 µM (inactive) in [12]; 51.8 µM (inactive) in [13]; 37.4 µM (inactive) in experiment [14]; 47.8 µM (inactive) in [16]; 61.9 µM (inactive) in [17]. The GI50 in experiment [18] is 39.4 µM (inactive).
As to `C#CCn1c(=O)ccn(/C(=C/C(=O)OCC)C(=O)OCC)c1=O`, the GI50 is 13.9 µM (inactive) in experiment [19]; 1.48 µM (inactive) in [1]; 15.2 µM (inactive) in experiment [20]; 18.6 µM (inactive) in experiment [2]; 2.9 µM (inactive) in experiment [3]; 11.9 µM (inactive) in [4]. In addition, the GI50 in experiment [5] was 3.45 µM (inactive); in experiment [6] it was 14.2 µM (inactive); in [7], 6.15 µM (inactive); in experiment [8], 17.2 µM (inactive); in [9] it was 4.05 µM (inactive); in experiment [10], 10.9 µM (inactive). Besides, the GI50 in [11] was 1.58 µM (inactive); in experiment [12] it was 1.81 µM (inactive); in [13], 15.1 µM (inactive); in experiment [15], 1.77 µM (inactive); in [16], 2.17 µM (inactive); in [17], 2.38 µM (inactive). The GI50 in experiment [18] is 24.6 µM (inactive).
For the compound `C(=C/c1ccc2nc(-c3ccc(/C=C/C=N/NC4=NCCCN4)cc3)cn2c1)/C=N/NC1=NCCCN1`, the GI50 was 25.5 µM (inactive) in experiment [1]; > 100 µM (inactive) in [20]; 14.8 µM (inactive) in experiment [2]; 0.822 µM (active) in [3]; > 100 µM (inactive) in experiment [4]; 31.2 µM (inactive) in experiment [5]. For the same compound, the GI50 is 20.3 µM (inactive) in experiment [6]; 6.81 µM (inactive) in experiment [7]; 43.9 µM (inactive) in [8]; 66.4 µM (inactive) in [9]; 26.1 µM (inactive) in experiment [10]; 12.1 µM (inactive) in experiment [11]. The GI50 is > 100 µM (inactive) in experiment [12]; > 100 µM (inactive) in experiment [13]; 9.64 µM (inactive) in experiment [14]; 19.5 µM (inactive) in experiment [15]; > 100 µM (inactive) in experiment [17]; > 100 µM (inactive) in [18].
In the case of `O=C1CSC2=NC3=C(COC/C3=C\c3ccc(F)cc3)C(c3ccc(F)cc3)N12` (configuration not stated), the GI50 in [19] is 52 µM (inactive); in [1], > 100 µM (inactive); in experiment [20], 99.5 µM (inactive); in experiment [2], > 100 µM (inactive); in [3], 14.9 µM (inactive); in experiment [4], 73.1 µM (inactive). Also, the GI50 in experiment [5] was 20.7 µM (inactive); in experiment [6], 34.8 µM (inactive); in experiment [7], 35.9 µM (inactive); in experiment [8], 41.7 µM (inactive); in experiment [9], 35.5 µM (inactive); in [10] it was 65.2 µM (inactive). Also, the GI50 is > 100 µM (inactive) in experiment [11]; 42.8 µM (inactive) in experiment [12]; > 100 µM (inactive) in [13]; 28.2 µM (inactive) in [14]; 99.5 µM (inactive) in [15]; 93.5 µM (inactive) in [17]. In experiment [18], the GI50 was 52.5 µM (inactive).
